Data reported in patent publication US20190262457A1, “NOVEL ALKYLATING AGENT” (CHIBA-PREFECTURE, priority 2016, published 2019).
Read-outs that look alike come from different tables or passages of the source.

What was measured:
PD-L1 gene = assay: Experiment to silence PD-L1 gene by real-time PCR, CCC07-03; type: cell-based, human
Procedure: (§1) RKO cells were cultured at 1×10^5 cells/well in a 6-well plate. On the next day, the cells were treated with 0, 5, 50, or 500 nM CCC07-03 for 6 hours, 24 hours, or 48 hours. The cells were recovered, and total RNA was extracted therefrom. The extraction employed AllPrep DNA/RNA Mini Kit (Qiagen N.V., CA). Next, cDNA was prepared by reverse transcription with the extracted RNA as a template using Super Script VILO™ Master Mix (Invitrogen Corp., CA) and subjected to qPCR. The qPCR conditions involved a holding stage at 50° C. for 2 min and 95° C. for 10 min, a cycling stage (40 cycles) at 95° C. for 15 sec and at 60° C. for 1 min, and a melt curve stage at 95° C. for 15 sec, at 60° C. for 1 min, at 95° C. for 30 sec, and at 60° C. for 15 sec. A relative expression level was quantified with GAPDH as a control. The PCR of PD-L1 employed the following primer set.

CTLA4 gene [1] = assay: Experiment to silence CTLA4 gene by real-time PCR, CCC07-03; type: cell-based, human; conditions: A2058 cells
Procedure: as §1, with “A2058” for “RKO”, “GAPDH (primers: SEQ ID NOs: 21 and 22)” for “GAPDH”, “CTLA4” for “PD-L1”

RKO cells = assay: Cytotoxicity and IC50 comparison with CBI by WST assay, 48 hours; type: cell-based, human; conditions: Homo sapiens, WST-8
Procedure: (§2) From the cell lines mentioned above, a large intestine cancer cell line SW480 was used as cells expressing PD-1, and a large intestine cancer cell line RKO was used as cells expressing PD-L1. An experiment was conducted to compare toxicity and IC50 between the PIP-drug conjugate compound CCC07-01 and the alkylating agent CBI used as a drug conjugate therein. The cells of each line were inoculated at 3000 cells/well to a 96-well microplate and cultured overnight. On the next day, the cells were treated with the PIP-CBI conjugate (CCC07-01) or CBI having a concentration of 0.1, 1, 10, 30, 100, 300, or 1000 nM (1 μM) for 48 hours. Then, WST-8 reagent was added to each well using Cell counting kit-8, and the mixture was reacted for 2 hours. Then, the cell count was calculated at a wavelength of 450 nm by the colorimetric analysis method using a microplate reader. The method for calculating the cell count involved: 1) obtaining the mean value of a medium alone, 2) subtracting the mean value of the medium from each well, 3) obtaining the mean value of DMSO, 4) dividing the medium mean value-subtracted value by the mean value of DMSO and then multiplying by 100, and 5) obtaining the mean value of each treatment group and a standard deviation, and preparing a graph. IC50 was calculated according to the following expression: IC50=10(LOG(A/B)×(50−C)/(D−C)+LOG(B) wherein A: a higher concentration of two concentrations sandwiching 50%, B: a lower concentration of two concentrations sandwiching 50%, C: the rate of inhibition at B, and D: the rate of inhibition at A.

SW480 cells = assay: as above; type: cell-based, human; conditions: Homo sapiens, WST-8
Procedure: as §2

CTLA4 gene [2] = assay: Study on CTLA4 gene silencing by negative control polyamide CCC07-04; type: cell-based, human; conditions: A2058 cells
Procedure: as §1, with “A2058” for “RKO”, “CCC07-04” for “CCC07-03”, “GAPDH (primers: SEQ ID NOs: 21 and 22)” for “GAPDH”, “CTLA4” for “PD-L1”

mouse Pd-11 gene = assay: Experiment to silence mouse Pd-11 gene by real-time PCR; type: cell-based; conditions: B16F1 cells
Procedure: as §1, with “B16F1” for “RKO”, “100, 200, 300, 400,” for “5, 50,”, “CCC07-04” for “CCC07-03”, “(3-tubulin” for “GAPDH”, “Pd-11” for “PD-L1”

[3] = known log-P of calibration compounds; cited from earlier work
[4] = known log-P of calibration compounds; cited from earlier work; remark: listed apart in the source
malignant melanoma = conditions: phase III clinical trial; cited from earlier work
[5] = 24 hours or later after administration

CC(=O)Nc1cn(C)c(C(=O)Nc2cn(C)c(C(=O)Nc3cc(C(=O)NCCC(=O)Nc4cn(C)c(C(=O)Nc5cc(C(=O)Nc6cc(C(=O)NCCCC(=O)Nc7cn(C)c(C(=O)Nc8cn(C)c(C(=O)Nc9cc(C(=O)NCCC(=O)Nc%10cc(C(=O)Nc%11ccc%12[nH]c(C(=O)N%13CC(CCl)c%14c%13cc(O)c%13ccccc%14%13)cc%12c%11)n(C)c%10)n(C)c9)n8)n7)n(C)c6)n(C)c5)n4)n(C)c3)n2)n1 (stereo not shown) [CCC07-03]
expression of PD-L1 (PD-L1 gene; RKO cells, 50 nM, 24 hours): statistically significantly decreased
expression of PD-L1 (PD-L1 gene; RKO cells, 500 nM, 6 hours): tended to be decreased
expression of PD-L1 (PD-L1 gene; RKO cells, 5, 50, 500 nM, 48 hours): decreased according to the concentration
expression of CTLA-4 (CTLA4 gene [1]; 500 nM, 24 hours): markedly decreased
expression of CTLA-4 (CTLA4 gene [1]; 6 hours): elevated

Oc1cc2c(c3ccccc13)C(CCl)CN2 (stereo not shown) [CBI, 1-chloromethyl-5-hydroxy-1,2-dihydro-3H-benzo [e]indole, reference compound]
IC50 (RKO cells): 3 nM
IC50 (SW480 cells): 10 nM

CC(=O)Nc1cn(C)c(C(=O)Nc2cn(C)c(C(=O)Nc3cc(C(=O)NCCC(=O)Nc4cc(C(=O)Nc5cn(C)c(C(=O)Nc6cn(C)c(C(=O)NCCCC(=O)Nc7cc(C(=O)Nc8cc(C(=O)Nc9cc(C(=O)NCCC(=O)Nc%10cn(C)c(C(=O)Nc%11ccc%12[nH]c(C(=O)N%13CC(CCl)c%14c%13cc(O)c%13ccccc%14%13)cc%12c%11)n%10)n(C)c9)n(C)c8)n(C)c7)n6)n5)n(C)c4)n(C)c3)n2)n1 (stereo not shown) [CCC07-04]
expression of CTLA-4 (CTLA4 gene [2]; 6 hours): elevated
state of the cells (cell death suggested) (CTLA4 gene [2]; [5]): All the cells floated
expression of Pd-11 (mouse Pd-11 gene; 100-500 nM, 6 hours): statistically significantly decreased
state of the cells (cell death suggested) (mouse Pd-11 gene; [5]): All the mouse B16F1 cells floated

N#Cc1ccccc1 [Benzonitrile]
logPow [3]: 1.56

c1ccc2[nH]ccc2c1 [Indole]
logPow [3]: 2.14
logPow [4]: 2.14

CCOC(C)=O [Ethyl acetate]
logPow [3]: 0.73

ipilimumab: anti-CTLA-4 antibody
objective response rate (ORR) (malignant melanoma): 11%
